Assay results published in PubChem BioAssay AID256 (DTP/NCI, 2004).
Values joined by “and” are separate entries in the source; they are usually repeats but may differ in a detail not shown here. Equal values may be shown once. Toxic doses and inconclusive results are not listed. The calls were made as follows: active = survival T/C of 150% or more; inactive = T/C below 125% in these data.

Test system: CD2F1 mice, L1210 leukemia ip, survival T/C
Experiment: NCI In Vivo Anticancer Drug Screen. Data for tumor model L1210 Leukemia (intraperitoneal) in CD2F1 (CDF1) mice
Settings: endpoint: mean survival time, higher = longer survival
Method in brief: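 Activity against a transplanted murine tumor was judged by comparing the compound group with a vehicle group. The outcome in the treated animals was divided by that in the controls.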

[1] = dose: 100.0 mg/kg/injection, schedule: Q04DX003 (ip), vehicle: saline
[2] = dose: 200.0 mg/kg/injection, schedule: Q04DX003 (ip), vehicle: saline
[3] = dose: 100.0 mg/kg/injection, schedule: Q01DX009 (ip), vehicle: saline with Tween-80
[4] = dose: 200.0 mg/kg/injection, schedule: Q01DX009 (ip), vehicle: saline with Tween-80
[5] = dose: 100.0 mg/kg/injection, schedule: Q04DX003 (ip), vehicle: saline with Tween-80
[6] = dose: 200.0 mg/kg/injection, schedule: Q04DX003 (ip), vehicle: saline with Tween-80
[7] = dose: 400.0 mg/kg/injection, schedule: Q04DX003 (ip), vehicle: saline with Tween-80
[8] = dose: 50.0 mg/kg/injection, schedule: Q01DX009 (ip), vehicle: saline with Tween-80
[9] = dose: 100.0 mg/kg/injection, schedule: Q01DX001 (ip), vehicle: saline with Tween-80
[10] = dose: 200.0 mg/kg/injection, schedule: Q01DX001 (ip), vehicle: saline with Tween-80
[11] = dose: 400.0 mg/kg/injection, schedule: Q01DX001 (ip), vehicle: saline with Tween-80
[12] = dose: 100.0 mg/kg/injection, schedule: Q01DX009 (ip), vehicle: Klucel (hydroxypropylcellulose) (HPC)
[13] = dose: 200.0 mg/kg/injection, schedule: Q01DX009 (ip), vehicle: Klucel (hydroxypropylcellulose) (HPC)
[14] = dose: 400.0 mg/kg/injection, schedule: Q01DX009 (ip), vehicle: Klucel (hydroxypropylcellulose) (HPC)
[15] = dose: 12.5 mg/kg/injection, schedule: Q01DX009 (ip), vehicle: saline with Tween-80

Measured: T/C

Nc1cc2c(nnn2C(c2ccccc2)c2ccccc2)c(N)n1
inactive: dose: 100.0 mg/kg/injection, schedule: Q01DX001 (ip), vehicle: carboxymethylcellulose (CMC) 98 % of control | dose: 200.0 mg/kg/injection, schedule: Q01DX001 (ip), vehicle: carboxymethylcellulose (CMC) 92 % of control | dose: 400.0 mg/kg/injection, schedule: Q01DX001 (ip), vehicle: carboxymethylcellulose (CMC) 95 % of control

COC(=O)C(CS)NC(=O)CCNC(=O)OCc1ccccc1 (stereo not given)
inactive: dose: 12.5 mg/kg/injection, schedule: Q01DX009 (ip), vehicle: sodium bicarbonate 100 % of control | dose: 25.0 mg/kg/injection, schedule: Q01DX009 (ip), vehicle: sodium bicarbonate 96 % of control | dose: 50.0 mg/kg/injection, schedule: Q01DX009 (ip), vehicle: sodium bicarbonate 91 % of control | dose: 100.0 mg/kg/injection, schedule: Q01DX009 (ip), vehicle: sodium bicarbonate 93 % of control | dose: 200.0 mg/kg/injection, schedule: Q01DX009 (ip), vehicle: sodium bicarbonate 88 % of control

Nc1cc(S(=O)(=O)O)c2cccnc2c1O
inactive: [1] 114 % of control | [2] 108 % of control

O=P1(O)Cc2ccccc2-c2ccccc21
inactive: [3] 100 % of control | [4] 110 % of control | dose: 400.0 mg/kg/injection, schedule: Q01DX009 (ip), vehicle: saline with Tween-80 98 % of control

CC(=O)CC(=O)Nc1nccs1
inactive: dose: 25.0 mg/kg/injection, schedule: Q04DX002 (ip), vehicle: saline with Tween-80 110 % of control | dose: 50.0 mg/kg/injection, schedule: Q04DX002 (ip), vehicle: saline with Tween-80 107 % of control | dose: 100.0 mg/kg/injection, schedule: Q04DX002 (ip), vehicle: saline with Tween-80 93 % of control

O=C(COc1ccc(Cl)cc1)C1CSc2c(Cl)ccc(Cl)c21 (stereo not given)
inactive: [5] 92 % of control | [6] 98 % of control | [7] 101 % of control

CCOC(=O)NC(S(=O)(=O)O)S(=O)(=O)O
inactive: dose: 100.0 mg/kg/injection, schedule: Q01DX001 (ip), vehicle: saline 104 % of control | dose: 200.0 mg/kg/injection, schedule: Q01DX001 (ip), vehicle: saline 104 % of control | dose: 400.0 mg/kg/injection, schedule: Q01DX001 (ip), vehicle: saline 108 % of control

O=P(O)(O)CCc1ccccc1
inactive: dose: 50.0 mg/kg/injection, schedule: Q04DX003 (ip), vehicle: saline 95 % of control | [1] 90 % of control | [2] 96 % of control

CCCNC(=O)Oc1c(C(C)C)ccc(C)c1Cl
inactive: [1] 98 % of control | [2] 101 % of control | dose: 400.0 mg/kg/injection, schedule: Q04DX003 (ip), vehicle: saline 95 % of control

O=C1OC2(c3ccccc31)c1ccccc1-c1ccccc12
inactive: [8] 97 % of control | [3] 100 % of control | [4] 100 % of control

COc1cc2c3c(c1OC)C1(C=CC(=O)C=C1)CC3N(C(C)=O)CC2 (stereo not given)
inactive: [5] 97 % of control | [6] 95 % of control | [7] 94 % of control

OC(CCC(O)c1ccccc1)c1ccccc1 (stereo not given)
inactive: dose: 75.0 mg/kg/injection, schedule: Q01DX001 (ip), vehicle: saline sonified 98 % of control | dose: 150.0 mg/kg/injection, schedule: Q01DX001 (ip), vehicle: saline sonified 96 % of control | dose: 300.0 mg/kg/injection, schedule: Q01DX001 (ip), vehicle: saline sonified 94 % of control

O=[N+]([O-])c1ccc(NCS(=O)(=O)O)cc1
inactive: [9] 91 % of control | [10] 94 % of control | [11] 87 % of control

COC(=O)C(CSCSCc1ccccc1)NC(=O)C(CSCc1ccccc1)NC(=O)CCNC(=O)OCc1ccccc1 (stereo not given)
inactive: dose: 25.0 mg/kg/injection, schedule: Q01DX009 (ip), vehicle: Klucel (hydroxypropylcellulose) (HPC) 96 % of control | dose: 50.0 mg/kg/injection, schedule: Q01DX009 (ip), vehicle: Klucel (hydroxypropylcellulose) (HPC) 93 % of control | [12] 88 % of control | [13] 93 % of control | [14] 90 % of control

CCCCCCCCCCCCCCCC(=O)N(CCC#N)CCC#N
inactive: [5] 93 % of control | [4] 97 % of control | [6] 96 % of control | [7] 109 % of control

COc1cc(C(=O)C=O)cc(OC)c1OC
inactive: [8] 103 % of control | [5] 109 % of control | [6] 110 % of control

CC12CCC(C/C1=N\O)C2(C)C (stereo not given)
inactive: [15] 106 % of control | dose: 25.0 mg/kg/injection, schedule: Q01DX009 (ip), vehicle: saline with Tween-80 97 % of control | [8] 102 % of control

CC(=O)Nc1nc2ncc(/C=C/c3ccccc3)nc2c(=O)[nH]1
inactive: dose: 75.0 mg/kg/injection, schedule: Q01DX001 (ip), vehicle: other 100 % of control | dose: 150.0 mg/kg/injection, schedule: Q01DX001 (ip), vehicle: other 97 % of control

NC(CSC(c1ccccc1)(c1ccccc1)c1ccccc1)C(=O)O (stereo not given) (tested in a mixture with another compound)
inactive: dose: 5.5 mg/kg/injection, schedule: Q04DX003 (ip), vehicle: water 105 % of control | dose: 8.3 mg/kg/injection, schedule: Q04DX003 (ip), vehicle: water 102 % of control | dose: 12.4 mg/kg/injection, schedule: Q04DX003 (ip), vehicle: water 102 % of control | dose: 18.6 mg/kg/injection, schedule: Q04DX003 (ip), vehicle: water 108 % of control | dose: 28.0 mg/kg/injection, schedule: Q04DX003 (ip), vehicle: water 103 % of control | dose: 42.0 mg/kg/injection, schedule: Q04DX003 (ip), vehicle: water 103 % of control | dose: 63.0 mg/kg/injection, schedule: Q04DX003 (ip), vehicle: water 90 % of control

NC(CCc1cc(O)ccc1O)C(=O)O (stereo not given)
inactive: dose: 100.0 mg/kg/injection, schedule: Q01DX009 (ip), vehicle: saline 98 % of control | dose: 200.0 mg/kg/injection, schedule: Q01DX009 (ip), vehicle: saline 98 % of control | dose: 400.0 mg/kg/injection, schedule: Q01DX009 (ip), vehicle: saline 102 % of control

COC(CO)(OC)c1ccccc1
inactive: [5] 102 % of control | [6] 106 % of control | [7] 93 % of control

CC(=O)CC(C)=O.CC(=O)CC(C)=O.CC(=O)CC(C)=O.[Fe]
inactive: dose: 6.25 mg/kg/injection, schedule: Q01DX009 (ip), vehicle: saline with Tween-80 93 % of control | [15] 97 % of control | dose: 12.5 mg/kg/injection, schedule: Q04DX003 (ip), vehicle: saline with Tween-80 102 % of control | dose: 25.0 mg/kg/injection, schedule: Q04DX003 (ip), vehicle: saline with Tween-80 98 % of control

Nc1n[n+](-c2ccc(Cl)cc2)no1
inactive: dose: 1.56 mg/kg/injection, schedule: Q01DX009 (ip), vehicle: water 92 % of control | dose: 3.12 mg/kg/injection, schedule: Q01DX009 (ip), vehicle: water 97 % of control and 112 % of control | dose: 6.25 mg/kg/injection, schedule: Q01DX009 (ip), vehicle: water 93 % of control and 96 % of control | dose: 12.5 mg/kg/injection, schedule: Q01DX009 (ip), vehicle: water 95 % of control and 98 % of control | dose: 25.0 mg/kg/injection, schedule: Q01DX009 (ip), vehicle: water 103 % of control and 104 % of control | dose: 50.0 mg/kg/injection, schedule: Q01DX009 (ip), vehicle: water 114 % of control

CN(C)c1ccc2nc3ccc(=O)cc-3sc2c1
inactive: [12] 98 % of control | [13] 101 % of control | [14] 103 % of control

CC1CC(C)(C)CC2CC(C(=O)O)(C(=O)O)CC12 (stereo not given)
inactive: dose: 100.0 mg/kg/injection, schedule: Q04DX003 (ip), vehicle: saline sonified 102 % of control | dose: 200.0 mg/kg/injection, schedule: Q04DX003 (ip), vehicle: saline sonified 96 % of control | dose: 400.0 mg/kg/injection, schedule: Q04DX003 (ip), vehicle: saline sonified 100 % of control

CCOC(=O)C(=O)CC1=CC=CC2=NC(=O)CCN12
inactive: [9] 93 % of control | [10] 93 % of control | [11] 102 % of control

Cc1ccc(S(=O)C(c2ccccc2)C(c2ccccc2)C(C)O)cc1 (stereo not given)
inactive: [5] 90 % of control | [6] 94 % of control | [7] 90 % of control

CCOC(=O)c1c(O)c(=O)[nH]c2ccccc12
inactive: dose: 100.0 mg/kg/injection, schedule: Q01DX005 (ip), vehicle: saline with Tween-80 106 % of control | dose: 200.0 mg/kg/injection, schedule: Q01DX005 (ip), vehicle: saline with Tween-80 97 % of control | dose: 400.0 mg/kg/injection, schedule: Q01DX005 (ip), vehicle: saline with Tween-80 97 % of control
